Results on 13 molecules are retold here after patent publication US9120787B2, “HIV replication inhibitors” (priority 2011, dated 2015).

Molecules are shown by their SMILES.

Data set [1] can be described thus: Cytotoxicity by MTS staining in PBMCs. Type of data set: cell-based. The note with it: human, peripheral blood mononuclear cells (PBMC), MTS staining, read-out: TC50. Here is the method: Cytotoxicity was assessed by MTS staining. At assay end-point, PBMC were stained with the addition of […] of the soluble tetrazolium-based dye MTS to determine cell viability and quantify compound toxicity. The plates were incubated 4 to 6 hrs at 37° C. Following incubation, the activity was assessed by reading absorbance values at 490/650 nm.

A short description of data set [2]: Cytotoxicity by MTS staining in uninfected MAGI-CCR5 cells. Type of data set: cell-based. The note with it: human, read-out: TC50. The method, then: The anti-viral activity of dihydropyrimidines was shown by inhibition of virus replication in MAGI-CCR5 cells. MAGI-CCR5 cells are derived from HeLa-CD4-LTR-β-galactosidase cells. The cells have been engineered to express high levels of CD4 and CCR5 and contain one copy of the HIV-1 LTR promoter driving expression of the β-galactosidase gene upon HIV-1 Tat transactivation. On the day preceding the assay, the cells were plated at 1.0×10^4 cells per well and maintained at 37° C. and 5% CO2 in a humidified incubator. Total cell count and viability was visually assessed using a hemacytometer and trypan blue exclusion. Compounds were evaluated at six concentrations (triplicate wells/concentration). On the day of assay setup, compound dilutions were prepared at two-times (2×) the final concentrations. Media was decanted and wells were replenished with 50 μl of 2× compounds, followed by the addition of 50 μl of diluted virus. Identical uninfected assays were prepared for parallel cytotoxicity testing.

The test system of data set [3] is HIV-1Ba-L. In words: HIV-1Ba-L replication in PBMCs (supernatant RT end-point). The note with it: for IC50: Human immunodeficiency virus 1, PBMC, 168 h; for TI (TC50/IC50): HIV-1Ba-L in PBMCs. Here is the method: Evaluation of Dihydropyrimidines vs. HIV-1Ba-L in Peripheral Blood Mononuclear Cells (PBMCs)
Cultures of pooled phytohemagglutinin stimulated peripheral blood mononuclear cells (PBMC) were seeded into a 96-well plate at plating density of 5×10^4 cells/well. Compounds were serially diluted into media in ½-log increments using a high test of […] and […] of each concentration (nine total concentrations). Cells were infected with HIV strains HIV-1Ba-L and NL4-3 at an MOI=0.1. The PBMCs were cultured for seven days in an humidified incubator maintained at 37° C., 5% CO2 atmosphere. At the assay end-point, the supernatant was collected and analyzed for reverse transcriptase activity. For the RT assay, tritiated thymidine triphosphate (3H-TTP, 80 Ci/mmol) was diluted 1:1 dH2O:Ethanol at 1 mCi/ml. Poly rA:oligo dT template:primer was prepared as a stock solution by combining 150 μl poly rA (20 mg/ml) with 0.5 mL oligo dT (20 units/ml) and 5.35 ml sterile dH2O followed by aliquoting (1.0 ml) and storage at −20° C. The RT reaction buffer contained of 125 ml 1.0 M EGTA, 125 ml dH2O, 125 ml 20% Triton X100, 50 ml 1.0 M Tris (pH 7.4), 50 ml 1.0 M DTT, and 40 ml 1.0 M MgCl2. The final reaction mixture was prepared by combining 1 part 3H-TTP, 4 parts dH2O, 2.5 parts poly rA:oligo dT stock and 2.5 parts reaction buffer. To each well, ten microliters of the reaction mixture and 15 μl of virus containing supernatant were added. The plates were incubated at 37° C. for 60 minutes. Following incubation, the reaction volume was spotted onto DE81 filter-mats, washed 5 times for 5 minutes each in a 5% sodium phosphate buffer or 2×SSC. […] were washed 2 times for 1 minute each in distilled water, 2 times for 1 minute each in 70% ethanol, and then dried. Incorporated radioactivity (counts per minute, CPM) was quantified using standard liquid scintillation techniques.

Data set [4] concerns HIV-1Ba-L. In words: Inhibition of virus replication in MAGI-CCR5 cells (β-galactosidase reporter). Type of data set: cell-based. The note with it: HIV-1Ba-L in MAGI-CCR5 cells; for IC50: Human immunodeficiency virus 1, 48 hours, β-galactosidase reporter expression, read-out: IC50. The method, then:
The anti-viral activity of dihydropyrimidines was shown by inhibition of virus replication in MAGI-CCR5 cells. MAGI-CCR5 cells are derived from HeLa-CD4-LTR-β-galactosidase cells. The cells have been engineered to express high levels of CD4 and CCR5 and contain one copy of the HIV-1 LTR promoter driving expression of the β-galactosidase gene upon HIV-1 Tat transactivation. On the day preceding the assay, the cells were plated at 1.0×10^4 cells per well and maintained at 37° C. and 5% CO2 in a humidified incubator. Total cell count and viability was visually assessed using a hemacytometer and trypan blue exclusion.
Compounds were evaluated at six concentrations (triplicate wells/concentration). On the day of assay setup, compound dilutions were prepared at two-times (2×) the final concentrations. Media was decanted and wells were replenished with 50 μl of 2× compounds, followed by the addition of 50 μl of diluted virus. Identical uninfected assays were prepared for parallel cytotoxicity testing.
Evaluation of Dihydropyrimidines vs. HIV-1Ba-L in MAGI-CCR5 Cells

Broadly, the IC50 is the point on the concentration scale where inhibition reaches its midpoint. In the case of `c1cc(CN2CCCNCCNCCCNCC2)ccc1CN1CCCNCCNCCCNCC1` [AMD 3100, reference compound], the CC50 at 7 days in data set [1] was more than 10 µM. The CC50 at 48 h in data set [2] is more than 10 µM. Moreover, the IC50 in the data set on HIV-1Ba-L [3] and in the data set on HIV-1Ba-L [4] was more than 10 µM each time.
Consider `CC1=C(c2nc(-c3ccc(C#N)cc3)cs2)C(c2ccc(Cl)nc2)NC(=O)N1` (stereo not shown) [Example 3], for which the CC50 at 7 days in data set [1] was not below 100 µM. Further, the CC50 at 48 h in data set [2] is not below 100 µM. In addition, in the data set on HIV-1Ba-L [3], the “TI (TC50/IC50)” value is listed as “A (A = TI (TC50/IC50) ≧100.0)” and the IC50 is less than 1 µM. In addition, in the data set on HIV-1Ba-L [4], the “TI (TC50/IC50)” value is recorded as “A (A = TI (TC50/IC50) ≧ 100.0)” and the IC50 was 1 to 5 µM.
Consider `CC1=C(c2nc(-c3ccc(C#N)cc3)cs2)C(c2ccnc3ccccc23)NC(=O)N1` (stereo not shown) [Example 15], for which, in data set [1], the CC50 at 7 days was not below 100 µM. Also, the CC50 at 48 h in data set [2] is not below 100 µM. Moreover, in the data set with HIV-1Ba-L [3], the “TI (TC50/IC50)” value is recorded as “B (B < 100.0-50.0)” and the IC50 lay within 1 to 5 µM. For the same molecule, in the data set with HIV-1Ba-L [4], the “TI (TC50/IC50)” value was “B (B < 100.0-50.0)” and the IC50 lay within 1 to 5 µM.
For the molecule `CC1=C(c2nc(-c3ccc(C#N)cc3)cs2)C(c2ccc(=O)[nH]c2)NC(=O)N1` (stereo not shown) [Example 18], in data set [1], the CC50 at 7 days is not below 100 µM. Further, the CC50 at 48 h in data set [2] is not below 100 µM. The “TI (TC50/IC50)” value in the data set on HIV-1Ba-L [3] and with HIV-1Ba-L [4] was “D (D < 10.0)” throughout. Moreover, the IC50 in the data set on HIV-1Ba-L [3] and in the data set on HIV-1Ba-L [4] was more than 100 µM each time.
For `CC1=C(c2nc(-c3ccc(C#N)cc3)cs2)C(c2ccc3cccc(O)c3n2)NC(=O)N1` (stereo not shown) [Example 23], in data set [1], the CC50 at 7 days is not below 100 µM. Besides, the CC50 at 48 h in data set [2] fell in the range of 50 to 100 µM. The “TI (TC50/IC50)” value in the data set with HIV-1Ba-L [3] was “A (A = TI (TC50/IC50) ≧100.0)”; in the data set on HIV-1Ba-L [4], “A (A = TI (TC50/IC50) ≧ 100.0)”. The IC50 in the data set on HIV-1Ba-L [3] and in the data set with HIV-1Ba-L [4] was less than 1 µM throughout.
With `CC1=C(c2nc(-c3ccc(C#N)cc3)cs2)C(c2ccc(F)c([N+](=O)[O-])c2)NC(=O)N1` (stereo not shown) [Example 60], in data set [2], the CC50 at 48 h is not below 100 µM. In addition, in the data set on HIV-1Ba-L [4], the “TI (TC50/IC50)” value is recorded as “C (C < 50.0 to 10.0)” and the 50% inhibitory concentration (IC50) was in the range of 5 to 100 µM.
The like results for `CC1=C(c2nc(-c3ccc(C#N)cc3)cs2)C(c2ccc(Cl)c(OC(F)(F)F)c2)NC(=O)N1` (stereo not shown) [Example 61] were, in that order, not below 100 µM, “D (D < 10.0)” and 5 to 100 µM.
For the molecule `CC1=C(c2nc(-c3ccc(C#N)cc3)cs2)C(c2cccc(OC(F)(F)F)c2)NC(=O)N1` (stereo not shown) [Example 62], in data set [2], the CC50 at 48 h is not below 100 µM. Also, in the data set with HIV-1Ba-L [4], the “TI (TC50/IC50)” value is “D (D < 10.0)” and the IC50 lay in the range of 5 to 100 µM.
Turning to `CC1=C(c2nc(-c3ccc(C#N)cc3)cs2)C(c2ccc(OC(F)(F)F)cc2)NC(=O)N1` (stereo not shown) [Example 63], the CC50 at 48 h in data set [2] is not below 100 µM. Further, in the data set on HIV-1Ba-L [4], the “TI (TC50/IC50)” value is on record as “D (D < 10.0)” and the IC50 was 5 to 100 µM.
The like results for `COc1cccc(C2NC(=O)NC(C)=C2c2nc(-c3ccc(C#N)cc3)cs2)c1` (stereo not shown) [Example 65] were, in that order, not below 100 µM, “C (C < 50.0 to 10.0)” and 1 to 5 µM.
The like results for `CC1=C(c2nc(-c3cccc(C#N)c3)cs2)C(c2cccc(O)c2)NC(=O)N1` (stereo not shown) [Example 66] were, in that order, 50 to 100 µM, “D (D < 10.0)” and 5 to 100 µM.
Consider `CC1=C(c2nc(-c3cccc(C#N)c3)cs2)C(c2ccc(O)cc2)NC(=O)N1` (stereo not shown) [Example 67], for which, in data set [2], the CC50 at 48 h lay within 50 to 100 µM. In the data set on HIV-1Ba-L [4], the “TI (TC50/IC50)” value is recorded as “D (D < 10.0)” and the IC50 was in the range of 5 to 100 µM.
In the case of `COc1ccc(C2NC(=O)NC(C)=C2c2nc(-c3ccc(C#N)cc3)cs2)cc1O` (stereo not shown) [Example 72], the CC50 at 48 h in data set [2] was not below 100 µM. In the data set on HIV-1Ba-L [4], the “TI (TC50/IC50)” value is “A (A = TI (TC50/IC50) ≧ 100.0)” and the IC50 is less than 1 µM.
